Experimental data taken from article PMC11478287, “Design and Synthesis of Pyridyl and 2-Hydroxyphenyl Chalcones with Antitubercular Activity” (Molecules, 2024).
“Also recorded” adds a separate entry of the source. Read-outs that look alike come from different tables or passages of the source.

Assays:
[1] = MDA-468 MTT cytotoxicity screening; format: cell-based; settings: human, MDA-MB-468 (MDA468) breast cancer cells, quadruplicate
Description: (§1) The cytotoxicity of compounds towards eukaryotic cells was determined using human liver cells (HepG2), non-tumorigenic human mammary epithelial cells (MCF-10A), and breast cancer cells (MDA-MB-468).
(§2) Cells were purchased from the American Type Culture Collection (Manassas, VA, USA). MDA-468 cells were grown in RPMI-1640 medium with 10% (v/v) heat-inactivated foetal calf serum and L-glutamine (2 mM) without phenol red. MCF-10A cells were grown in Dulbecco’s modified Eagle’s medium/ Ham’s F-12 medium (1:1) with 5% (v/v) heat-inactivated foetal calf serum, epidermal growth factor (20 ng/mL), insulin (10 µg/mL), and hydrocortisone (500 ng/mL). Cells were maintained at 37 °C, 5% CO2 / 95% air with 100% humidity and passaged every 2–3 days using trypsin EDTA solution (0.25% w/v). Adhered cells at sub confluence were harvested for experimental use. The medium was aspirated and discarded, and trypsin-EDTA solution (1% w/v, 1 mL) was added to the cells. After 30 s this was aspirated and immediately replaced by a further 1 mL of trypsin-EDTA solution. The cells were incubated at 37 °C for approximately 5 min or until the cells were visibly non-adherent. The resultant cell suspension was placed in a 25 mL sterile universal container with 10 mL of fresh medium followed by centrifugation (3 min, 3000 rpm, and 4 °C). Old medium was aspirated and replaced with 10 mL of fresh medium. To determine the density of cells in suspension, an aliquot (100 µL) was added to a trypan-blue solution (0.4% w/v, 100 µL), and the number of viable cells were determined using a Neubauer haemocytometer. The cell suspension was diluted with relevant medium to give a cell count of 2 × 10^3 cells per mL. Aliquots (100 µL) were dispensed into sterile 96-well microtitre flat-bottomed plates. For the MDA-468 and MCF-10A cell lines the plates were incubated at 37 °C, 5% CO2/95% air with 100% humidity for 24 h prior to the addition of test compounds. Test compounds were added within 30 min into the wells from a 100 mM stock solution in DMSO and serially diluted to give final concentrations of […], 0.01, 0.003, 0.001, and 0.0003 µM. […] The cells were allowed to grow for 96 h at 5%, CO2, 37 °C to give 80–90% confluence in the control wells, after which 50 µL of MTT (3-[4,5 dimethylthiazol-2-yl]-2,5-diphenyl tetrazolium bromide, 2 mg mL^−1) in sterile phosphate buffer was added to each well and the plates were further incubated for 2 h. All medium was aspirated, and the formazan precipitate generated by viable cells was solubilised by 150 µL of DMSO. All the plates were vortexed, and the absorbance at 540 nm was determined using a Molecular Devices SpectraMax M5 plate reader. Results were expressed as a percentage of the control value versus the negative logarithm of the molar drug concentration range using Graph Pad Prism. Relative toxicities of each compound within each cell line were expressed as 50% of growth inhibition (IC50). All determinations were carried out in quadruplicate.

[2] = MCF-10A MTT cytotoxicity screening; format: cell-based; settings: human, MCF-10A normal breast (mammary epithelial) cells, quadruplicate, read-out: Cytotoxicity MCF10A normal breast cells IC50
Description: as §1, §2

[3] = test system: MDA468 breast cancer cells; design: method as in PMID 29332599; settings: previously reported value ref 12; read-out: Cytotoxicity MDA468 breast cancer cells IC50; cited from earlier work
[4] = test system: Mycobacterium tuberculosis H37Rv; assay: microbe, parasite or virus in culture; format: cell-based; settings: for IC90: read-out: Anti-tubercular activity M. tuberculosis (H37Rv) IC90; for IC50: SD in brackets, read-out: Anti-tubercular activity M. tuberculosis (H37Rv) IC50 (SD)
[5] = HepG2 cytotoxicity screening (CellTiter-Glo); format: cell-based; settings: human, HepG2 cells; 50% decrease in viable cells after 72 h
Description: as §1
HepG2 cells were incubated with compounds for 72 h in medium containing either glucose or galactose, and cell viability was measured. The IC50 was determined as the concentration of compound causing a 50% decrease in viable cells after 72 h. Compounds were prepared as 10-point three-fold serial dilutions in DMSO. The highest concentration of compound tested was 100 µM where compounds were soluble in DMSO at 10 mM. […] HepG2 cells were cultured in complete DMEM (recipe: DMEM medium, 1X penicillin-streptomycin solution, 2 mM Corning Glutogro supplement, 1 mM sodium pyruvate, 10% v/v Fetal Bovine Serum), inoculated into 384-well assay plates and incubated for 24 h at 37 °C, 5% CO2. Compounds were added and cells were cultured for a further 72 h. The final DMSO concentration was 1%. Cell viability was determined using the CellTiter-Glo® Luminescent Cell Viability Assay (Promega, Madison, WI, USA) and measuring relative luminescent units (RLU). The dose-response curve was fitted using the Levenberg–Marquardt algorithm. The IC50 was defined as the compound concentration that produced a 50% decrease in viable cells. Each run included staurosporine as a control.

[6] = Mycobacterium tuberculosis, H37RV, 120 h, 5-day incubation, […]

Row | Structure (SMILES) | IC50 at 96 h [1] [µM] | IC50 at 96 h [2] [µM] | IC50 at 72 h [5] [µM] | IC90 [4, 6] [µM] | IC50 [4, 6] [µM] | further results
1 | COc1ccc(/C=C\c2cc(OC)c(OC)c(OC)c2)cc1O [Combretastatin A-4, reference compound] | 0.003 | 0.0016 |  |  |  | 
2 | COc1cc(C(=O)/C=C/c2ccc3c(c2)OCO3)cc(OC)c1OC [Compound 2] |  | 2.3 |  |  |  | IC50 [3]: 0.006 µM; Anti-tubercular activity (in words) [4]: did not exhibit anti-tubercular activity; also recorded: no antitubercular activity; IC90 ([4]; Mycobacterium tuberculosis, H37RV, 120 h): > 100 µM
3 | O=C(/C=C/c1cccnc1)c1ccc(Cl)c(Cl)c1 [Compound 14, (E)-1-(3,4-dichlorophenyl)-3-(pyridin-3-yl)prop-2-en-1-one] |  |  | 2.5 | 28 | 12 | 
4 | O=C(/C=C/c1cccnc1)c1ccc(Cl)cc1 [Compound 15, (E)-1-(4-chlorophenyl)-3-(pyridin-3-yl)prop-2-en-1-one] |  |  | 11 | 77 | 24 | 
5 | COc1cc(C(=O)/C=C/c2cccnc2)cc(OC)c1OC [Compound 16, (E)-3-(pyridin-3-yl)-1-(3,4,5-trimethoxyphenyl)prop-2-en-1-one] | 0.7 | 1.5 | 2 | 59 | 19 | 
6 | O=C(/C=C/c1cccnc1)c1ccc(O)cc1 [Compound 17] | 30 | > 100 | > 100 | > 100 | > 100 | Anti-tubercular activity (in words) ([4]; M. tuberculosis H37Rv): abolished
7 | O=C(/C=C/c1cccnc1)c1ccccc1O [Compound 18, (E)-1-(2-hydroxyphenyl)-3-(pyridin-3-yl)prop-2-en-1-one] | 8 | 16 | 22 | > 100 | > 100 | Anti-tubercular activity (in words) ([4]; M. tuberculosis H37Rv): abolished
8 | O=C(/C=C/c1cccnc1)c1c2ccccc2cc2ccccc12 [Compound 19] | 0.3 | 4.4 | 2.7 | 48 | 10 | 
9 | O=C(/C=C/c1cccnc1)c1ccc2ccc3cccc4ccc1c2c34 [Compound 20, (E)-1-(pyren-1-yl)-3-(pyridin-3-yl)prop-2-en-1-one] | 4 | 2 | 1.8 | 22 | 8.8 | 
10 | O=C(/C=C/c1cccnc1)c1ccc(-c2ccccc2)cc1 [Compound 21, (E)-1-([1,1′-biphenyl]-4-yl)-3-(pyridin-3-yl)prop-2-en-1-one] | 3.5 | 7 | 4.5 | 8.9 | 3.9 | 
11 | COc1ccccc1C(=O)/C=C/c1ccc(Br)cc1 [Compound 22] |  |  | 13 | 59 | 44.5 | 
12 | O=C(/C=C/c1ccc(Cl)cc1)c1ccccc1O [Compound 23, (E)-3-(4-chlorophenyl)-1-(2-hydroxyphenyl)prop-2-en-1-one] |  |  | 25 | 97 to 100 |  | IC90 ([4]; 5-day incubation, […]): > 100 µM
13 | O=C(/C=C/c1ccc(Br)cc1)c1ccccc1O [Compound 24, (E)-3-(4-bromophenyl)-1-(2-hydroxyphenyl)prop-2-en-1-one] |  |  | 14 | 97 | > 100 | 
14 | COc1cccc(C(=O)/C=C/c2ccc(Br)cc2)c1 [Compound 25, (E)-3-(4-bromophenyl)-1-(3-methoxyphenyl)prop-2-en-1-one] |  |  | 14 | 28 | 22 | 
15 | COc1cccc(C(=O)/C=C/c2ccc(Cl)cc2)c1 [Compound 26, (E)-3-(4-chlorophenyl)-1-(3-methoxyphenyl)prop-2-en-1-one] |  |  | 13 | ≥ 28 | 20 | IC90 ([4]; 5-day incubation, […]): 28 µM
16 | O=C(/C=C/c1cn(-c2ccccc2)nc1-c1ccccc1)c1ccccc1O [Compound 27, (E)-3-(1,3-diphenyl-1H-pyrazol-4-yl)-1-(2-hydroxyphenyl)prop-2-en-1-one] |  |  | 74 | 97 to 100 | > 100 | IC90 ([4]; 5-day incubation, […]): > 100 µM
17 | O=C(/C=C/c1cccc(Br)c1)c1cccnc1 [Compound 28, (E)-3-(3-bromophenyl)-1-(pyridin-3-yl)prop-2-en-1-one] | 0.7 | 5.2 |  | 65 |  | 
18 | Oc1ccccc1C1=NNC(c2cn(-c3ccccc3)nc2-c2ccccc2)C1 (stereo not drawn) [Compound 29, 2-(1′,3′-diphenyl-3,4-dihydro-1′H,2H-[3,4′-bipyrazol]-5-yl)phenol] |  |  | 46.5 | > 25 | 11 | Fold more active than parent compound 27 (IC50 H37Rv) ([4]; 29 versus 27): 10 fold
19 | Oc1ccccc1C1=NNC(c2ccc(Cl)cc2)C1 (stereo not drawn) [Compound 30, 2-(5-(4-chlorophenyl)-4,5-dihydro-1H-pyrazol-3-yl)phenol] |  |  | 19.5 |  | 23 | 
20 | Oc1ccccc1C1=NNC(c2ccc(Br)cc2)C1 (stereo not drawn) [Compound 31, 2-(5-(4-bromophenyl)-4,5-dihydro-1H-pyrazol-3-yl)phenol] |  |  | 24.5 | 34 | 23 | 
21 | CO[C@H]1/C=C/O[C@@]2(C)Oc3c(C)c(O)c4c(O)c(c(/C=N/N5CCN(C)CC5)c(O)c4c3C2=O)NC(=O)/C(C)=C\C=C\[C@H](C)[C@H](O)[C@@H](C)[C@@H](O)[C@@H](C)[C@H](OC(C)=O)[C@@H]1C [Rifampicin, reference compound] |  |  |  | 0.0087 | 0.0044 | 
